From patent US20260193268A1, “TRICYCLIC PI3Ka INHIBITOR, PREPARATION METHOD THEREFOR, AND PHARMACEUTICAL USE THEREOF” (WIGEN BIOMEDICINE TECHNOLOGY (SHANGHAI) CO., LTD., priority 2022, published 2026)
Where two headings read alike, the source gives them in different places.

Tests used:
[1] = system: HCC1954 cells (with PI3Kα H1047R mutation); assay: In vitro inhibition of HCC1954 cell proliferation (CellTiter-Lumi); assay type: cell-based; conditions: Homo sapiens, HCC1954, 144 h, HCC1954 cells, 144 h, CellTiter-Lumi
Method: Assay for In Vitro Inhibition of HCC1954 Cell Proliferation by Compounds of the Present Disclosure
The growth of the cells was evaluated, and the IC50 for the inhibition of cell growth by the compounds was calculated.

[2] = system: MCF-7 cells (with PI3Kα E545K mutation); assay: In vitro inhibition of MCF-7 cell proliferation (CellTiter-Lumi); assay type: cell-based; conditions: Homo sapiens, MCF7, 144 h
Summary of the method: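 Growth IC50 derived from ATP luminescence (CellTiter-Lumi) after 144 h exposure of MCF-7 cells carrying PI3Kα E545K, plated 2000 cells/well and dosed with serial dilutions one day after seeding.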

[3] = class symbols, read-out: Inhibitory activity against HCC1954 cells (IC50), class symbols
[4] = class symbols, read-out: Inhibitory activity against MCF-7 cells (IC50), class symbols
[5] = numeric values, read-out: Inhibitory activity against HCC1954 cells (IC50)
[6] = numeric values, read-out: Inhibitory activity against MCF-7 cells (IC50)

IC50 [1, 3] [µM]	IC50 [2, 4] [µM]	IC50 [1, 5] [µM]	IC50 [2, 6] [µM]	SMILES
< 0.05	< 0.05	–	–	COCCNC(C)(C)C=C(C#N)C(=O)Nc1ccc(N2CC(N3CCN(c4ccc5c(c4)-c4nc(N6C(=O)OC[C@H]6C(F)F)cn4CCO5)CC3)C2)nc1 [Compound 250]
–	–	0.0036	0.0002	C=CC(=O)Nc1ccc(N2CC(N3CCN(c4ccc5c(c4)-c4nc(N6C(=O)OC[C@H]6C(F)F)cn4CCO5)CC3)C2)c(C#N)c1 [Compound 172]
< 0.05	< 0.05	–	–	CNC(C)(C)C=C(C#N)C(=O)Nc1cc(N2CC(N3CCN(c4ccc5c(c4)-c4nc(N6C(=O)OC[C@H]6C(F)F)cn4CCO5)CC3)C2)n(C)n1 [Compound 219]
< 0.05	< 0.05	–	–	CC1(C=C(C#N)C(=O)Nc2cnc(N3CC(N4CCN(c5ccc6c(c5)-c5nc(N7C(=O)OC[C@H]7C(F)F)cn5CCO6)CC4)C3)nc2)COC1 [Compound 269]
–	–	> 1	0.186	C=CC(=O)N1CC[C@@H](CN2CC3(CCN(c4ccc5c(c4)-c4nc(N6C(=O)OC[C@H]6C(F)F)cn4CCO5)CC3)C2)C1 [Compound 23]
< 0.05	< 0.05	–	–	CC(C)(C)C=C(C#N)C(=O)Nc1ccc(N2CC(N3CCN(c4cc5c(cc4O)OCCn4cc(N6C(=O)OC[C@H]6C(F)F)nc4-5)CC3)C2)cc1 [Compound 317]
0.1 to 1	< 0.05	–	–	C=CC(=O)N1CC(N2CCC(c3ccc(-c4ccc5c(c4)-c4nc(N6C(=O)OC[C@H]6C(F)F)cn4CCO5)cc3)CC2)C1 [Compound 197]
–	–	0.0022	0.0001	C=CC(=O)Nc1ccc(N2CC(N3CCN(c4ccc5c(c4)-c4nc(N6C(=O)OC[C@H]6C(F)F)cn4CCO5)CC3)C2)cc1C#N [Compound 143]
–	–	0.298	0.058	C=CC(=O)Nc1ccc(CCC(=O)N2CCN(c3ccc4c(c3)-c3nc(N5C(=O)OC[C@H]5C(F)F)cn3CCO4)CC2)cc1 [Compound 11]
–	–	0.174	0.013	C=CC(=O)N1CC(N2CC(CN3CCN(c4ccc5c(c4)-c4nc(N6C(=O)OC[C@H]6C(F)F)cn4CCO5)CC3)C2)C1 [Compound 60]
< 0.05	< 0.05	–	–	CC(C)(C)C=C(C#N)C(=O)Nc1ccc(N2CC(N3CCN(c4ccc5c(c4)-c4nc(N6C(=O)OC[C@H]6C(F)F)cn4CCO5)CC3)C2)nc1 [Compound 241]
–	–	0.314	0.033	C=CC(=O)N1CC(CN2CCC(N3CCN(c4ccc5c(c4)-c4nc(N6C(=O)OC[C@H]6C(F)F)cn4CCO5)CC3)CC2)C1 [Compound 64]
–	–	0.872	0.197	C=CC(=O)N1CCC(N2CC[C@H](CN3CCN(c4ccc5c(c4)-c4nc(N6C(=O)OC[C@H]6C(F)F)cn4CCO5)CC3)C2)CC1 [Compound 59]
–	–	0.75	0.075	C=CC(=O)N1CC[C@@H](CN2CC(CN3CCN(c4ccc5c(c4)-c4nc(N6C(=O)OC[C@H]6C(F)F)cn4CCO5)CC3)C2)C1 [Compound 37]
< 0.05	< 0.05	–	–	CC(C)(C=C(C#N)C(=O)Nc1ccc(N2CC(N3CCN(c4ccc5c(c4)-c4nc(N6C(=O)OC[C@H]6C(F)F)cn4CCO5)CC3)C2)cc1)N1CCC2(CC1)COC2 [Compound 312]
0.05 to 0.1	< 0.05	–	–	C=CC(=O)Nc1ccc(N2CCC(/C=C/c3ccc4c(c3)-c3nc(N5C(=O)OC[C@H]5C(F)F)cn3CCO4)CC2)cc1 [Compound 209]
< 0.05	< 0.05	–	–	CC(=O)NC(C)(C)C=C(C#N)C(=O)Nc1ccc(N2CC(N3CCN(c4ccc5c(c4)-c4nc(N6C(=O)OC[C@H]6C(F)F)cn4CCO5)CC3)C2)cc1 [Compound 325]
< 0.05	< 0.05	–	–	CC(C)(C)C=C(C#N)C(=O)Nc1ccc(N2CC(N3CCN(c4cc(F)c5c(c4)-c4nc(N6C(=O)OC[C@H]6C(F)F)cn4CCO5)CC3)C2)cc1 [Compound 316]
< 0.05	< 0.05	–	–	CN(C)C/C=C/C(=O)Nc1ncc(N2CC(N3CCN(c4ccc5c(c4)-c4nc(N6C(=O)OC[C@H]6C(F)F)cn4CCO5)CC3)C2)cn1 [Compound 286]
–	–	0.184	0.019	C=CC(=O)Nc1ccc(CN2CC3(CCN(c4ccc5c(c4)-c4nc(N6C(=O)OC[C@H]6C(F)F)cn4CCO5)CC3)C2)cc1 [Compound 43]
< 0.05	< 0.05	–	–	CC(C)(N)C=C(C#N)C(=O)Nc1ccc(N2CC(N3CCN(c4ccc5c(c4)-c4nc(N6C(=O)OC[C@H]6C(F)F)cn4CCO5)CC3)C2)nc1 [Compound 242]
–	–	0.066	0.022	C=C(C)C(=O)Nc1ccc(N2CC(N3CCN(c4ccc5c(c4)-c4nc(N6C(=O)OC[C@H]6C(F)F)cn4CCO5)CC3)C2)cc1 [Compound 100]
–	–	0.042	0.016	N#CC(=CC1CC1)C(=O)Nc1ccc(N2CC(N3CCN(c4ccc5c(c4)-c4nc(N6C(=O)OC[C@H]6C(F)F)cn4CCO5)CC3)C2)cc1 [Compound 278]

IC50 [1, 3] [µM]	IC50 [2, 4] [µM]	IC50 [1, 5] [µM]	IC50 [2, 6] [µM]	SMILES
< 0.05	< 0.05	–	–	N#CC(=CC1(NC2COC2)CCC1)C(=O)Nc1ccc(N2CC(N3CCN(c4ccc5c(c4)-c4nc(N6C(=O)OC[C@H]6C(F)F)cn4CCO5)CC3)C2)cc1 [Compound 388]
< 0.05	< 0.05	–	–	CC(C)(N)C=C(C#N)C(=O)Nc1cnc(N2CC(N3CCN(c4ccc5c(c4)-c4nc(N6C(=O)OC[C@H]6C(F)F)cn4CCO5)CC3)C2)nc1 [Compound 260]
< 0.05	< 0.05	–	–	CC(C)(C)C=C(C#N)C(=O)Nc1ccc(N2CC(N3CCN(c4cc5c(cc4F)OCCn4cc(N6C(=O)OC[C@H]6C(F)F)nc4-5)CC3)C2)cc1 [Compound 315]
< 0.05	< 0.05	–	–	CNC1(C=C(C#N)C(=O)Nc2cnc(N3CC(N4CCN(c5ccc6c(c5)-c5nc(N7C(=O)OC[C@H]7C(F)F)cn5CCO6)CC4)C3)nc2)CC1 [Compound 273]
< 0.05	< 0.05	–	–	Cc1nc(-c2cn3c(n2)-c2cc(N4CCN(C5CN(c6ccc(NC(=O)C(C#N)=CC(C)(C)C)cc6)C5)CC4)ccc2OCC3)n(C(C)C)n1 [Compound 340]
< 0.05	< 0.05	–	–	N#CC(=CC1CCCN1)C(=O)Nc1ccc(N2CC(N3CCN(c4ccc5c(c4)-c4nc(N6C(=O)OC[C@H]6C(F)F)cn4CCO5)CC3)C2)cc1 (stereo partly drawn) [Compound 214]
< 0.05	< 0.05	–	–	C=CC(=O)N1CCc2cc(N3CC(N4CCN(c5ccc6c(c5)-c5nc(N7C(=O)OC[C@H]7C(F)F)cn5CCO6)CC4)C3)cc(C#N)c21 [Compound 193]
< 0.05	< 0.05	–	–	COC1(C=C(C#N)C(=O)Nc2ccc(N3CC(N4CCN(c5ccc6c(c5)-c5nc(N7C(=O)OC[C@H]7C(F)F)cn5CCO6)CC4)C3)cc2)CC1 [Compound 282]
< 0.05	< 0.05	–	–	COC(C)(C)C=C(C#N)C(=O)Nc1ccc(N2CC(N3CCN(c4ccc5c(c4)-c4nc(N6C(=O)OC[C@H]6C(F)F)cn4CCO5)CC3)C2)cc1 [Compound 212]
–	–	> 1	0.244	C=C(C)C(=O)Nc1ccc(N2CC(CN3CCN(c4ccc5c(c4)-c4nc(N6C(=O)OC[C@H]6C(F)F)cn4CCO5)CC3)C2)cc1 [Compound 45]
0.05 to 0.1	< 0.05	–	–	C=CC(=O)Nc1ccc2c(c1)CCN2CCN1CCN(c2ccc3c(c2)-c2nc(N4C(=O)OC[C@H]4C(F)F)cn2CCO3)CC1 [Compound 205]
< 0.05	< 0.05	–	–	CNC1(C=C(C#N)C(=O)Nc2ccc(N3CC(N4CCN(c5ccc6c(c5)-c5nc(N7C(=O)OC[C@H]7C(F)F)cn5CCO6)CC4)C3)nc2)CC1 [Compound 255]
< 0.05	< 0.05	–	–	CN(C(=O)OC(C)(C)C)C(C)(C)C=C(C#N)C(=O)Nc1ccc(N2CC(N3CCN(c4ccc5c(c4)-c4nc(N6C(=O)OC[C@H]6C(F)F)cn4CCO5)CC3)C2)cc1 [Compound 335]
< 0.05	< 0.05	–	–	CC(C)(C=C(C#N)C(=O)Nc1ccc(N2CC(N3CCN(c4ccc5c(c4)-c4nc(N6C(=O)OC[C@H]6C(F)F)cn4CCO5)CC3)C2)cc1)N1CC2(CCOCC2)C1 [Compound 313]
< 0.05	< 0.05	–	–	CC(C)(C=C(C#N)C(=O)Nc1cnc(N2CC(N3CCN(c4ccc5c(c4)-c4nc(N6C(=O)OC[C@H]6C(F)F)cn4CCO5)CC3)C2)nc1)N1CCC1 [Compound 265]
–	–	0.248	0.083	C=CC(=O)N1CCN(CCCCN2CCN(c3ccc4c(c3)-c3nc(N5C(=O)OC[C@H]5C(F)F)cn3CCO4)CC2)CC1 [Compound 26]
–	–	0.054	0.0049	C=CC(=O)N1CCc2nc(N3CC(N4CCN(c5ccc6c(c5)-c5nc(N7C(=O)OC[C@H]7C(F)F)cn5CCO6)CC4)C3)sc2C1 [Compound 154]
< 0.05	< 0.05	–	–	CC(C)(N)C=C(C#N)C(=O)Nc1ncc(N2CC(N3CCN(c4ccc5c(c4)-c4nc(N6C(=O)OC[C@H]6C(F)F)cn4CCO5)CC3)C2)cn1 [Compound 294]
< 0.05	< 0.05	–	–	CN(C1COC1)C(C)(C)C=C(C#N)C(=O)Nc1ccc(N2CC(N3CCN(c4ccc5c(c4)-c4nc(N6C(=O)OC[C@H]6C(F)F)cn4CCO5)CC3)C2)nc1 [Compound 238]
< 0.05	< 0.05	–	–	CNC(C)(C)C=C(C#N)C(=O)Nc1cnc(N2CC(N3CCN(c4ccc5c(c4)-c4nc(N6C(=O)OC[C@H]6C(F)F)cn4CCO5)CC3)C2)nc1 [Compound 261]
< 0.05	< 0.05	–	–	CN(C)C/C=C/C(=O)Nc1ccc(N2CC(N3CCN(c4ccc5c(c4)-c4nc(N6C(=O)OC[C@H]6C(F)F)cn4CCO5)CC3)C2)nc1 [Compound 285]
–	–	0.219	0.021	C=CC(=O)Nc1ccc(N2CCC3(CC2)CCN(c2ccc4c(c2)-c2nc(N5C(=O)OC[C@H]5C(F)F)cn2CCO4)CC3)cc1 [Compound 183]
